# The supplement of paper PMC9663587
# Key:
# Neratinib/HKI272 = compound: CCOc1cc2ncc(C#N)c(Nc3ccc(OCc4ccccn4)c(Cl)c3)c2cc1NC(=O)/C=C/CN(C)C [Neratinib/HKI272]; assay: increase in dead-cell fraction, 72 h; higher = more death;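 further: breast cancer cell lines in 384-well plates, stained with Hoechst plus LIVE/DEAD far red dye and imaged, cells above an LDR intensity threshold counted dead, Hoechst-negative corpses included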
# [1] = compound: CCc1cnn2c(NCc3ccc[n+]([O-])c3)cc(N3CCCC[C@H]3CCO)nc12; assay: as above
# [2] = compound: CC(=O)c1c(C)c2cnc(Nc3ccc(N4CCNCC4)cn3)nc2n(C2CCCC2)c1=O; assay: as above
# LEE011/Ribociclib = compound: CN(C)C(=O)c1cc2cnc(Nc3ccc(N4CCNCC4)cn3)nc2n1C1CCCC1 [LEE011/Ribociclib]; assay: as above
# [3] = compound: CCN1CCN(Cc2ccc(Nc3ncc(F)c(-c4cc(F)c5nc(C)n(C(C)C)c5c4)n3)nc2)CC1; assay: as above
# Flavopiridol = compound: CN1CC[C@H](c2c(O)cc(O)c3c(=O)cc(-c4ccccc4Cl)oc23)[C@H](O)C1 [Flavopiridol]; assay: as above
# BSJ-03-123 = compound: CC(=O)c1c(C)c2cnc(Nc3ccc(N4CCN(CCOCCOCCOCCNC(=O)COc5cccc6c5C(=O)N(C5CCC(=O)NC5=O)C6=O)CC4)cn3)nc2n(C2CCCC2)c1=O [BSJ-03-123]; assay: as above
# THZ1 = compound: CN(C)C/C=C/C(=O)Nc1ccc(C(=O)Nc2cccc(Nc3ncc(Cl)c(-c4c[nH]c5ccccc45)n3)c2)cc1 [THZ1]; assay: as above
# AZD6738 = compound: C[C@@H]1COCCN1c1cc(C2([S@](C)(=N)=O)CC2)nc(-c2cc[nH]c3nccc2-3)n1 [AZD6738]
# BSJ-01-175 = compound: CN(C)C/C=C/C(=O)Nc1ccc(O[C@@H]2CCC[C@@H](Nc3ncc(Cl)c(-c4c[nH]c5ccccc45)n3)C2)cc1 [BSJ-01-175]
# Vorinostat = compound: O=C(CCCCCCC(=O)Nc1ccccc1)NO [Vorinostat]
# AZD2014 = compound: CNC(=O)c1cccc(-c2ccc3c(N4CCOC[C@@H]4C)nc(N4CCOC[C@@H]4C)nc3n2)c1 [AZD2014]
# Tivantinib/ARQ197 = compound: O=C1NC(=O)[C@@H](c2cn3c4c(cccc24)CCC3)[C@@H]1c1c[nH]c2ccccc12 [Tivantinib/ARQ197]
# AZD7762 = compound: NC(=O)Nc1cc(-c2cccc(F)c2)sc1C(=O)N[C@H]1CCCNC1 [AZD7762]
# [4] = compound: COc1ccc2c(c1)[C@]1(C[C@H]1c1ccc3c(/C=C/c4ccc(CN5C[C@@H](C)O[C@@H](C)C5)cc4)n[nH]c3c1)C(=O)N2
# [5] = compound: CCN1CCN(Cc2ccc(Nc3ncc(F)c(-c4cc(F)c5nc(C)n(C(C)C)c5c4)n3)nc2)CC1
# [6] = compound: CC(=O)Nc1cccc(-n2c(=O)n(C3CC3)c(=O)c3c(Nc4ccc(I)cc4F)n(C)c(=O)c(C)c32)c1
# [7] = compound: CCC1=CN=CN=C1N2CCN(CC2)CC3=NC4=C(N3)C=C(C=C4)C(F)(F)F
# Ipatasertib/GDC0068 = compound: CC(C)NC[C@@H](C(=O)N1CCN(c2ncnc3c2[C@H](C)C[C@H]3O)CC1)c1ccc(Cl)cc1 [Ipatasertib/GDC0068]
# 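Wherever GR50, 72 h is given: breast cancer and non-malignant breast epithelial cell lines, Deep Dye Drop or Dye Drop imaging, nine half-log doses, GR normalized to time-zero plates and DMSO-only controls.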
cell line,measurement,setting,value
MDAMB436,increase in dead-cell fraction,Neratinib/HKI272; 0.0003162 µM,0.0013
same,increase in dead-cell fraction,Neratinib/HKI272; 0.001 µM,0.0034
same,increase in dead-cell fraction,Neratinib/HKI272; 0.003162 µM,-0.0005
same,increase in dead-cell fraction,Neratinib/HKI272; 0.01 µM,0.0014
same,increase in dead-cell fraction,Neratinib/HKI272; 0.03162 µM,0.0028
same,increase in dead-cell fraction,Neratinib/HKI272; 0.1 µM,0.0066
same,increase in dead-cell fraction,Neratinib/HKI272; 0.3162 µM,0.0167
same,increase in dead-cell fraction,Neratinib/HKI272; 1 µM,0.0223
same,increase in dead-cell fraction,Neratinib/HKI272; 3.162 µM,0.0987
same,increase in dead-cell fraction,[1]; 0.0001 µM,-0.0027
same,increase in dead-cell fraction,[1]; 0.0003162 µM,-0.0028
same,increase in dead-cell fraction,[1]; 0.001 µM,0.0008
same,increase in dead-cell fraction,[1]; 0.003162 µM,0.0055
same,increase in dead-cell fraction,[1]; 0.01 µM,0.0157
same,increase in dead-cell fraction,[1]; 0.03162 µM,0.0896
same,increase in dead-cell fraction,[1]; 0.1 µM,0.0459
same,increase in dead-cell fraction,[1]; 0.3162 µM,0.0256
same,increase in dead-cell fraction,[1]; 1 µM,0.035
same,increase in dead-cell fraction,[2]; 0.0003162 µM,-0.0017
same,increase in dead-cell fraction,[2]; 0.001 µM,0.0024
same,increase in dead-cell fraction,[2]; 0.003162 µM,-0.0027
same,increase in dead-cell fraction,[2]; 0.01 µM,-0.0025
same,increase in dead-cell fraction,[2]; 0.03162 µM,0
same,increase in dead-cell fraction,[2]; 0.1 µM,0.0005
same,increase in dead-cell fraction,[2]; 0.3162 µM,-0.0024
same,increase in dead-cell fraction,[2]; 1 µM,-0.0052
same,increase in dead-cell fraction,[2]; 3.162 µM,0.0044
same,increase in dead-cell fraction,LEE011/Ribociclib; 0.001 µM,-0.0008
same,increase in dead-cell fraction,LEE011/Ribociclib; 0.003162 µM,-0.0095
same,increase in dead-cell fraction,LEE011/Ribociclib; 0.01 µM,-0.0034
same,increase in dead-cell fraction,LEE011/Ribociclib; 0.03162 µM,-0.0032
same,increase in dead-cell fraction,LEE011/Ribociclib; 0.1 µM,0.0007
same,increase in dead-cell fraction,LEE011/Ribociclib; 0.3162 µM,-0.0014
same,increase in dead-cell fraction,LEE011/Ribociclib; 1 µM,-0.0035
same,increase in dead-cell fraction,LEE011/Ribociclib; 3.162 µM,-0.0137
same,increase in dead-cell fraction,LEE011/Ribociclib; 10 µM,0.0049
same,increase in dead-cell fraction,[3]; 0.001 µM,0.0024
same,increase in dead-cell fraction,[3]; 0.003162 µM,-0.005
same,increase in dead-cell fraction,[3]; 0.01 µM,0.0007
same,increase in dead-cell fraction,[3]; 0.03162 µM,-0.0009
same,increase in dead-cell fraction,[3]; 0.1 µM,0.0076
same,increase in dead-cell fraction,[3]; 0.3162 µM,0.0116
same,increase in dead-cell fraction,[3]; 1 µM,0.0346
same,increase in dead-cell fraction,[3]; 3.162 µM,0.0531
same,increase in dead-cell fraction,[3]; 10 µM,0.316
same,increase in dead-cell fraction,Flavopiridol; 0.0001 µM,0.003
same,increase in dead-cell fraction,Flavopiridol; 0.0003162 µM,-0.0059
same,increase in dead-cell fraction,Flavopiridol; 0.001 µM,-0.0173
same,increase in dead-cell fraction,Flavopiridol; 0.003162 µM,0.0048
same,increase in dead-cell fraction,Flavopiridol; 0.01 µM,-0.0068
same,increase in dead-cell fraction,Flavopiridol; 0.03162 µM,-0.002
same,increase in dead-cell fraction,Flavopiridol; 0.1 µM,0.0119
same,increase in dead-cell fraction,Flavopiridol; 0.3162 µM,0.0798
same,increase in dead-cell fraction,Flavopiridol; 1 µM,0.0954
same,increase in dead-cell fraction,BSJ-03-123; 0.001 µM,-0.0105
same,increase in dead-cell fraction,BSJ-03-123; 0.003162 µM,0.0015
same,increase in dead-cell fraction,BSJ-03-123; 0.01 µM,0.0056
same,increase in dead-cell fraction,BSJ-03-123; 0.03162 µM,-0.0027
same,increase in dead-cell fraction,BSJ-03-123; 0.1 µM,0.0104
same,increase in dead-cell fraction,BSJ-03-123; 0.3162 µM,0.0058
same,increase in dead-cell fraction,BSJ-03-123; 1 µM,-0.0041
same,increase in dead-cell fraction,BSJ-03-123; 3.162 µM,0.0011
same,increase in dead-cell fraction,BSJ-03-123; 10 µM,0.0742
same,increase in dead-cell fraction,THZ1; 0.0001 µM,0.0026
same,increase in dead-cell fraction,THZ1; 0.0003162 µM,-0.0097
same,increase in dead-cell fraction,THZ1; 0.001 µM,-0.0017
same,increase in dead-cell fraction,THZ1; 0.003162 µM,-0.0001
same,increase in dead-cell fraction,THZ1; 0.01 µM,-0.006
same,increase in dead-cell fraction,THZ1; 0.03162 µM,-0.0078
same,increase in dead-cell fraction,THZ1; 0.1 µM,0.0476
same,increase in dead-cell fraction,THZ1; 0.3162 µM,0.0477
same,increase in dead-cell fraction,THZ1; 1 µM,0.0644
same,"GR50, 72 h",AZD6738,9.07 µM
same,"GR50, 72 h",BSJ-01-175,0.00965 µM
same,"GR50, 72 h",Vorinostat,2.68 µM
same,"GR50, 72 h",AZD2014,> 10 µM
same,"GR50, 72 h",Tivantinib/ARQ197,0.368 µM
same,"GR50, 72 h",AZD7762,0.04 µM
same,"GR50, 72 h",[4],0.00237 µM
same,"GR50, 72 h",[5],2.1 µM
same,"GR50, 72 h",[6],> 1 µM
same,"GR50, 72 h",[7],4.75 µM
same,"GR50, 72 h",Ipatasertib/GDC0068,> 10 µM
